Experimental data: ChEMBL document CHEMBL1128534, “Cyclic lactam alpha-melanotropin analogues of Ac-Nle4-cyclo[Asp5, D-Phe7,Lys10] alpha-melanocyte-stimulating hormone-(4-10)-NH2 with bulky aromatic amino acids at position 7 show high antagonist potency and selectivity at specific melanocortin receptors” (J Med Chem, 1995)

Key:
Type in all cases: functional
[1] = target: Melanocyte-stimulating hormone receptor (Mus musculus, UniProt Q01727)
[2] = target: T1, Melanocyte-stimulating hormone receptor (Homo sapiens, UniProt Q01726)
T1 sequence (Q01726 whole entry): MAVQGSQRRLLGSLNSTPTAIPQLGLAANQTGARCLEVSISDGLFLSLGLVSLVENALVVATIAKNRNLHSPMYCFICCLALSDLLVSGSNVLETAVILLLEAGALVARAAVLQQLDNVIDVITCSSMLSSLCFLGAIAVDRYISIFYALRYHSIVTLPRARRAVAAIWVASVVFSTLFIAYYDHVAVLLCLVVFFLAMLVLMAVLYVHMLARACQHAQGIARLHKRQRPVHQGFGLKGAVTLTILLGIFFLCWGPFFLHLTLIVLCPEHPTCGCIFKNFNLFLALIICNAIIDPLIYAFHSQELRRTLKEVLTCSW

[3] = target: T1, Melanocyte-stimulating hormone receptor; test: Evaluated for agonist at […] frog (Rana pipiens) skin assay

Chain of Melanocyte-stimulating hormone receptor (Mus musculus, UniProt Q01727) (Q01727 whole entry): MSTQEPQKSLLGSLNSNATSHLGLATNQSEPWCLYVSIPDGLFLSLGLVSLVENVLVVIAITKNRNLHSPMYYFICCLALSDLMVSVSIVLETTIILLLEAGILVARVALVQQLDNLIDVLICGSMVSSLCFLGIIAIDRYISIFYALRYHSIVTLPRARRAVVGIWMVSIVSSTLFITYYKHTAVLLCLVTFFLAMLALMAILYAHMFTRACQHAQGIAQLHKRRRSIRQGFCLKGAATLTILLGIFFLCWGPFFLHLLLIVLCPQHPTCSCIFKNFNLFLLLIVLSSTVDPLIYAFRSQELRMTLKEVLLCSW

| Structure (SMILES) | EC50 [1] | EC50 [2] | EC50 [3] |
| --- | --- | --- | --- |
| CCCC[C@H](NC(C)=O)C(=O)N[C@H]1CC(=O)NCCCC[C@@H](C(N)=O)NC(=O)[C@H](Cc2c[nH]c3ccccc23)NC(=O)[C@H](CCCNC(=N)N)NC(=O)[C@@H](Cc2ccc3ccccc3c2)NC(=O)[C@H](Cc2c[nH]cn2)NC1=O | 0.039 nM | – | – |
| CCCC[C@H](NC(C)=O)C(=O)N[C@H]1CC(=O)NCCCC[C@@H](C(N)=O)NC(=O)[C@H](Cc2c[nH]c3ccccc23)NC(=O)[C@H](CCCNC(=N)N)NC(=O)[C@@H](Cc2ccc(Cl)cc2)NC(=O)[C@H](Cc2cnc[nH]2)NC1=O | 0.0095 nM | 0.005 nM | 2 nM |
| CCCC[C@H](NC(C)=O)C(=O)N[C@H]1CC(=O)NCCCC[C@@H](C(N)=O)NC(=O)[C@H](Cc2c[nH]c3ccccc23)NC(=O)[C@H](CCCN=C(N)N)NC(=O)[C@@H](Cc2ccc(F)cc2)NC(=O)[C@H](Cc2c[nH]cn2)NC1=O | 0.026 nM | 0.016 nM | 0.1 nM |
| CCCC[C@H](NC(C)=O)C(=O)N[C@H]1CC(=O)NCCCC[C@@H](C(N)=O)NC(=O)[C@H](Cc2c[nH]c3ccccc23)NC(=O)[C@H](CCCN=C(N)N)NC(=O)[C@@H](Cc2ccc(I)cc2)NC(=O)[C@H](Cc2c[nH]cn2)NC1=O | 0.19 nM | 0.055 nM | – |
